Where “and” joins values, the source holds several entries; their conditions need not be identical. Equal values may be shown once.

Some targets named below: MARK3 (Homo sapiens, UniProt P27448); AURKB (Homo sapiens, UniProt Q96GD4); ZAK (Homo sapiens, UniProt Q9NYL2); CSK (Homo sapiens, UniProt P41240); BRAF (Homo sapiens, UniProt P15056); PRKCD (Homo sapiens, UniProt Q05655).
Holding throughout (assay): biochemical
Holding throughout (set-up): endogenous in cells; host or cells: K562 cell extract; species or system K562 (extract); replicate k of n = 2 (each experiment ID is one independent experiment; two experiment IDs per compound)
Details in all cases: read-out: KDapp

The target of a further assay is T1, MAP3K2 (Homo sapiens, UniProt Q9Y2U5).
T1 sequence (Q9Y2U5 1-619): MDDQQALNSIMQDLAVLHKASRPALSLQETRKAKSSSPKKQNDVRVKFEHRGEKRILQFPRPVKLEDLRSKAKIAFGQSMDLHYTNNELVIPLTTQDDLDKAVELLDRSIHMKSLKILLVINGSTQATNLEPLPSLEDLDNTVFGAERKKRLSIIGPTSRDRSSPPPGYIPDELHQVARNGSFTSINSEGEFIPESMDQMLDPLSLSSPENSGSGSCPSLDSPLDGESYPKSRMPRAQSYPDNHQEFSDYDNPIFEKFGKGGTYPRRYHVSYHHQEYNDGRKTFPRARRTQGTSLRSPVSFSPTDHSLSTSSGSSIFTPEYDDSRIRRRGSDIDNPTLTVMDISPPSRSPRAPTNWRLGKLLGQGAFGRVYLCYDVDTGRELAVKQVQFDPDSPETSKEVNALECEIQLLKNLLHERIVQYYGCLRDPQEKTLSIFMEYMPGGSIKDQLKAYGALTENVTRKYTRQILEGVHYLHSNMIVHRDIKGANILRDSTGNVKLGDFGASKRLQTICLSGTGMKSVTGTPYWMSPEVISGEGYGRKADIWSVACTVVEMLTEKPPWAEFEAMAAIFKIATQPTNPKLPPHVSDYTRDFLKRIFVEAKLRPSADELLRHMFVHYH

Chain of AURKB (Q96GD4 whole entry): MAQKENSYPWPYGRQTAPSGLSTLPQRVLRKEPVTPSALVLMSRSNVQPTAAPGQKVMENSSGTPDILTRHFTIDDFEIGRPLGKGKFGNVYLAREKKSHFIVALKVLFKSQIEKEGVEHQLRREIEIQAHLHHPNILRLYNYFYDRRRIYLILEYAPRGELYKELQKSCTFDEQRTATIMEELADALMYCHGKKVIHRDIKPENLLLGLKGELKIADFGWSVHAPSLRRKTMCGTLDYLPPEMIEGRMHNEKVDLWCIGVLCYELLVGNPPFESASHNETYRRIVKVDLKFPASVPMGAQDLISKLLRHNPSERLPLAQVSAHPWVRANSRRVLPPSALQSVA
Chain of BRAF (P15056 whole entry): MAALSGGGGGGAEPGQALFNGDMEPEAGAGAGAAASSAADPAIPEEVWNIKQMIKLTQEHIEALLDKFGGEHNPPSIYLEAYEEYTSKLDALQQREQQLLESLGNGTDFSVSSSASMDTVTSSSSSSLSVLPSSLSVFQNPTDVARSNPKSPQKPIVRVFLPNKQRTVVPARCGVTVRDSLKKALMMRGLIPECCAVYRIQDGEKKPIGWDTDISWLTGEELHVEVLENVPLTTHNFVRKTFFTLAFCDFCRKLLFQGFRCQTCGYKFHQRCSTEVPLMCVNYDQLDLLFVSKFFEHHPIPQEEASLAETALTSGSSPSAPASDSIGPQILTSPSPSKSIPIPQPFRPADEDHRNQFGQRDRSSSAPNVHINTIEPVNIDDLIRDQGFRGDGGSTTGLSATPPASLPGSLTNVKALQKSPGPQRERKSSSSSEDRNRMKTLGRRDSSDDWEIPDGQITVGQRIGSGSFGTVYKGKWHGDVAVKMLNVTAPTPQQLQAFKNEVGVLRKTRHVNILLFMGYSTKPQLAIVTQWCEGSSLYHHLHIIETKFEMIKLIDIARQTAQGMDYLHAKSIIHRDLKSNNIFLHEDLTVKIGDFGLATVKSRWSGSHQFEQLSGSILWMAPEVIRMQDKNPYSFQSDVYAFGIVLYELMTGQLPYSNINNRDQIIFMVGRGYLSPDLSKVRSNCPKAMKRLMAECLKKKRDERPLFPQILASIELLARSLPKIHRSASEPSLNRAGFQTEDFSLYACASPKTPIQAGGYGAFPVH
Chain of ZAK (Q9NYL2 whole entry): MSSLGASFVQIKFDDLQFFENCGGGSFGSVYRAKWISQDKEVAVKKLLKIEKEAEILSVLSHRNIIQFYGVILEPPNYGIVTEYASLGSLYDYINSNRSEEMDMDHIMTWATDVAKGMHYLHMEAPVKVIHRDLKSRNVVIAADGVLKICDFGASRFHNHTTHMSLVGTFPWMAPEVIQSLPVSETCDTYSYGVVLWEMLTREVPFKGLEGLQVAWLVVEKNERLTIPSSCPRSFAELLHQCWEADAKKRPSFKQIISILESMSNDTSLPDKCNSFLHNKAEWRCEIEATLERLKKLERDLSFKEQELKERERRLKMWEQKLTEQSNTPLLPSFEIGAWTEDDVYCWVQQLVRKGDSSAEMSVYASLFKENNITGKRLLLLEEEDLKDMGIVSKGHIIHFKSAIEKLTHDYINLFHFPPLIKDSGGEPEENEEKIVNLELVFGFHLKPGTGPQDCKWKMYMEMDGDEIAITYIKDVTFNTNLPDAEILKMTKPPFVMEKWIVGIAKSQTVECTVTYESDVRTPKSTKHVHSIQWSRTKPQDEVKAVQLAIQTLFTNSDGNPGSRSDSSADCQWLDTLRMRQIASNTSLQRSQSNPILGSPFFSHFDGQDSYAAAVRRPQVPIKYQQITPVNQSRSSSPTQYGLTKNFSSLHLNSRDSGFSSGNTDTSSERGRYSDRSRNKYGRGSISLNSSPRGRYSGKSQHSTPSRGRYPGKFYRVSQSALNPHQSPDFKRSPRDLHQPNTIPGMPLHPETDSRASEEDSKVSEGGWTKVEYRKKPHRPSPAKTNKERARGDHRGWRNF
Chain of MARK3 (P27448 whole entry): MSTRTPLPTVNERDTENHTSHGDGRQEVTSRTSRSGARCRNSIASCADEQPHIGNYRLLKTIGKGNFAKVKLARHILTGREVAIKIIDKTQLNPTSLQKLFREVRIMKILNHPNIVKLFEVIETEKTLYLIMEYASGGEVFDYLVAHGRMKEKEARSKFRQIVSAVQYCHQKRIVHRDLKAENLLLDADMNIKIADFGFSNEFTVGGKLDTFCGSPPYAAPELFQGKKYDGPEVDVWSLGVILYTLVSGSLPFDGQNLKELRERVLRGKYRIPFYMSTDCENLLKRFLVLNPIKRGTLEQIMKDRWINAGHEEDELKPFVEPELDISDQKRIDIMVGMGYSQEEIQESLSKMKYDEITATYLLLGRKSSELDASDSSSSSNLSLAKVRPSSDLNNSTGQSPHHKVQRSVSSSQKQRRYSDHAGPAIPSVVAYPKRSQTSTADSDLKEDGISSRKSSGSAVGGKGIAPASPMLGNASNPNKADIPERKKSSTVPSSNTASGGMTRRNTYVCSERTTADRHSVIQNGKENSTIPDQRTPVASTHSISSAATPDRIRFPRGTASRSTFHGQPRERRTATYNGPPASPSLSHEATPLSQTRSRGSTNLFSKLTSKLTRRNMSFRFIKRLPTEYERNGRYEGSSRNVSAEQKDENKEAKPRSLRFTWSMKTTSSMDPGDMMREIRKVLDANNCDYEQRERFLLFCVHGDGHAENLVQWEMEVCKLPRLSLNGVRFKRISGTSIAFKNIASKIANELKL
Chain of CSK (P41240 whole entry): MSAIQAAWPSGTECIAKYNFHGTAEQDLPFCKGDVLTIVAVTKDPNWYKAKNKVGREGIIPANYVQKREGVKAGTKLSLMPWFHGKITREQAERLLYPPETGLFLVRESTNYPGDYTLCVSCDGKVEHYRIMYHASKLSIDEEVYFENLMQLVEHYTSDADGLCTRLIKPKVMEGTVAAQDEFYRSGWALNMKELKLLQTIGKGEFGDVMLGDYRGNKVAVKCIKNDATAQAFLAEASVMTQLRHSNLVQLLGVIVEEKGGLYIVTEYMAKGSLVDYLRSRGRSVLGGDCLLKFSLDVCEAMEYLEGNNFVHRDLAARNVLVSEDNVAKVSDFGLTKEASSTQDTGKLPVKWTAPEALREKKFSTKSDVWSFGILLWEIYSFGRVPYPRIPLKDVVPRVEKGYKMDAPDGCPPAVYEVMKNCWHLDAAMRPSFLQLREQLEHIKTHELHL
Chain of PRKCD (Q05655 whole entry): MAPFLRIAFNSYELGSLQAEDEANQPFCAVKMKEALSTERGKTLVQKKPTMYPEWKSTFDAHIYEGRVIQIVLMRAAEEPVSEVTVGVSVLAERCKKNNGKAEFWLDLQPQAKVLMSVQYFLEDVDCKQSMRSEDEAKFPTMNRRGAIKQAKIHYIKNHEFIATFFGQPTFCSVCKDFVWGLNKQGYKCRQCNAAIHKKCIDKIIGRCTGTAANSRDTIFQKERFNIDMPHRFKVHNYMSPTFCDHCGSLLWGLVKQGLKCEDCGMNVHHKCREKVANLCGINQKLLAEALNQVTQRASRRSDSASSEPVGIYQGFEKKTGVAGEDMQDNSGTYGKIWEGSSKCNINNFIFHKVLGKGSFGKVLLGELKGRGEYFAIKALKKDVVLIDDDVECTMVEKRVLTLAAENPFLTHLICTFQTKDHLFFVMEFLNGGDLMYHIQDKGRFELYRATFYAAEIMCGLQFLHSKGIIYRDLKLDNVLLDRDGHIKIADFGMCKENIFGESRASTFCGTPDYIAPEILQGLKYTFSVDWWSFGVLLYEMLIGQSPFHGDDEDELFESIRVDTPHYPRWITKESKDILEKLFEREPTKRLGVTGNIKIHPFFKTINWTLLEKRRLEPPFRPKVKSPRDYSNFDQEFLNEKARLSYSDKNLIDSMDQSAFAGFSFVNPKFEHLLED

`CN1CCN(c2ccc(Nc3ncc(C#N)c(Nc4ccccc4C(N)=O)n3)cc2)CC1.Cl` [TCMDC-134116]: the Kd was 0.0666 µM and 0.0777 µM at MARK3; 0.318 µM on MAP3K2; 0.0143 µM and 0.0228 µM on AURKB; 0.677 µM on ZAK; 2.47 µM on CSK; 1.57 µM on BRAF. For the same compound, the Kd at PRKCD was found to be 0.685 µM.
Turning to `Cl.NCC1(c2nc(-c3ccc(Cl)c(O)c3)c(-c3ccncc3)[nH]2)CCCCC1` [TCMDC-141154], the Kd at MAP3K2 was 0.779 µM; at ZAK, 6.13 µM and 3.63 µM; at CSK, 2.65 µM; at BRAF, 0.861 µM and 0.705 µM; on PRKCD, 0.806 µM.
For `CN(C)CC(O)COc1ccc(Nc2ncc([N+](=O)[O-])c(Nc3ccccc3O)n2)cc1.O=C(O)C(F)(F)F` (centres unmarked) [TCMDC-141399], the Kd on MARK3 is 5.55 µM and 3.66 µM; at AURKB, 1.5 µM.

The values are drawn from paper PMC4774911, “Biochemical Screening of Five Protein Kinases from Plasmodium falciparum against 14,000 Cell-Active Compounds” (PLoS ONE, 2016).
